According to ChEMBL document CHEMBL3885861, “Open TG-GATES”:

Organism: Rattus norvegicus
Experiment: Open TG-GATES - Regimen: Single
Assay type: toxicity, organism-based, Sprague-Dawley
Set-up: regimen Single, gender Male, age 6 weeks
Details: in vivo, po, 100 mg/kg, route gavage; for APTT / Bas / Eos / Fbg / Hb / Ht / Lym / MCH / MCHC / MCV / Mono / Neu / PT / Plat / RBC / Ret / WBC: tissue Blood; for KIDNEY_L / KIDNEY_R / KIDNEY_TOTAL: tissue Kidney; for LIVER: tissue Liver; for A/G / ALP / ALT / AST / BUN / CRE / Ca / Cl / DBIL / GLC / IP / K / LDH / Na / PL / RALB / TBIL / TC / TG / TP / gamma-GTP: tissue Plasma

O=C1CN(/N=C/c2ccc([N+](=O)[O-])o2)C(=O)N1 [NITROFURANTOIN]
TERMINAL_BW (6 h, dose level Low): 199.6 g | APTT (6 h, dose level High): 18.6 s | Bas (6 h, dose level High): 0% | Eos (6 h, dose level High): 1% | Fbg (6 h, dose level High): 216.6 mg/dL | Hb (6 h, dose level High): 13.3 g/dL | Ht (6 h, dose level High): 38% | Lym (6 h, dose level High): 73% | MCH (6 h, dose level High): 21.6 pg | MCHC (6 h, dose level High): 35% | MCV (6 h, dose level High): 61.7 fL | Mono (6 h, dose level High): 3.2% | Neu (6 h, dose level High): 21.4% | PT (6 h, dose level High): 12.9 s | Plat (6 h, dose level High): 122 x10_4/uL | RBC (6 h, dose level High): 615 x10_4/ul | Ret (6 h, dose level High): 7.7% | WBC (6 h, dose level High): 113.2 x10_2/uL | APTT (6 h, dose level Low): 16.4 s | Eos (6 h, dose level Low): 1.2% | Fbg (6 h, dose level Low): 215.8 mg/dL | Hb (6 h, dose level Low): 13.4 g/dL | Ht (6 h, dose level Low): 40.6% | Lym (6 h, dose level Low): 74.6% | MCH (6 h, dose level Low): 21.3 pg | MCHC (6 h, dose level Low): 32.9% | MCV (6 h, dose level Low): 64.5 fL | Mono (6 h, dose level Low): 6.8% | Neu (6 h, dose level Low): 17.8% | PT (6 h, dose level Low): 11.7 s | Plat (6 h, dose level Low): 121.5 x10_4/uL | RBC (6 h, dose level Low): 629.8 x10_4/ul | Ret (6 h, dose level Low): 7% | WBC (6 h, dose level Low): 89.8 x10_2/uL | KIDNEY_L (6 h, dose level High): 1 g | KIDNEY_R (6 h, dose level High): 1 g | KIDNEY_TOTAL (6 h, dose level High): 2 g | KIDNEY_L (6 h, dose level Low): 0.9 g | KIDNEY_R (6 h, dose level Low): 0.9 g | KIDNEY_TOTAL (6 h, dose level Low): 1.8 g | LIVER (6 h, dose level High): 9.4 g | LIVER (6 h, dose level Low): 8.3 g | A/G (6 h, dose level High): 1.5 | ALP (6 h, dose level High): 745.6 IU/L | ALT (6 h, dose level High): 32.2 IU/L | AST (6 h, dose level High): 64.6 IU/L | BUN (6 h, dose level High): 10.6 mg/dL | CRE (6 h, dose level High): 0.4 mg/dL | Ca (6 h, dose level High): 10.6 mg/dL | Cl (6 h, dose level High): 103.8 meq/L | DBIL (6 h, dose level High): 0.078 mg/dL | GLC (6 h, dose level High): 184.4 mg/dL | IP (6 h, dose level High): 8.9 mg/dL | K (6 h, dose level High): 4.2 meq/L | LDH (6 h, dose level High): 211 IU/L | Na (6 h, dose level High): 140.8 meq/L | PL (6 h, dose level High): 135.4 mg/dL | RALB (6 h, dose level High): 3.3 g/dL | TBIL (6 h, dose level High): 0.1 mg/dL | TC (6 h, dose level High): 78.8 mg/dL | TG (6 h, dose level High): 55 mg/dL | TP (6 h, dose level High): 5.5 g/dL | gamma-GTP (6 h, dose level High): 1.2 IU/L | A/G (6 h, dose level Low): 2.2 | ALP (6 h, dose level Low): 1217 IU/L | AST (6 h, dose level Low): 66 IU/L | BUN (6 h, dose level Low): 13.6 mg/dL | Ca (6 h, dose level Low): 11 mg/dL | Cl (6 h, dose level Low): 104.6 meq/L | DBIL (6 h, dose level Low): 0.008 mg/dL | GLC (6 h, dose level Low): 190.8 mg/dL | IP (6 h, dose level Low): 8.7 mg/dL | K (6 h, dose level Low): 4.6 meq/L | LDH (6 h, dose level Low): 92.2 IU/L | Na (6 h, dose level Low): 139.4 meq/L | PL (6 h, dose level Low): 150.8 mg/dL | RALB (6 h, dose level Low): 3.9 g/dL | TBIL (6 h, dose level Low): 0.036 mg/dL | TC (6 h, dose level Low): 100 mg/dL | TG (6 h, dose level Low): 44 mg/dL | TP (6 h, dose level Low): 5.7 g/dL | gamma-GTP (6 h, dose level Low): 0.4 IU/L | TERMINAL_BW (9 h, dose level High): 213.9 g | TERMINAL_BW (9 h, dose level Low): 211 g | APTT (9 h, dose level High): 19.3 s | Bas (9 h, dose level High): 0% | Eos (9 h, dose level High): 1% | Fbg (9 h, dose level High): 245.8 mg/dL | Hb (9 h, dose level High): 13.1 g/dL | Ht (9 h, dose level High): 37.3% | Lym (9 h, dose level High): 75.4% | MCH (9 h, dose level High): 21.5 pg | MCHC (9 h, dose level High): 35.2% | MCV (9 h, dose level High): 61.1 fL | Mono (9 h, dose level High): 2.6% | Neu (9 h, dose level High): 19.8% | PT (9 h, dose level High): 12.9 s | Plat (9 h, dose level High): 126.6 x10_4/uL | RBC (9 h, dose level High): 609.4 x10_4/ul | Ret (9 h, dose level High): 8% | WBC (9 h, dose level High): 77.1 x10_2/uL | APTT (9 h, dose level Low): 19 s | Eos (9 h, dose level Low): 1.2% | Fbg (9 h, dose level Low): 229.2 mg/dL | Hb (9 h, dose level Low): 12.7 g/dL | Ht (9 h, dose level Low): 39% | Lym (9 h, dose level Low): 65.6% | MCH (9 h, dose level Low): 20.8 pg | MCHC (9 h, dose level Low): 32.7% | MCV (9 h, dose level Low): 63.6 fL | Mono (9 h, dose level Low): 9.2% | Neu (9 h, dose level Low): 24.4% | PT (9 h, dose level Low): 12.3 s | Plat (9 h, dose level Low): 124.9 x10_4/uL | RBC (9 h, dose level Low): 612.8 x10_4/ul | Ret (9 h, dose level Low): 6.7% | WBC (9 h, dose level Low): 65.8 x10_2/uL | KIDNEY_L (9 h, dose level High): 1 g | KIDNEY_R (9 h, dose level High): 1 g | KIDNEY_TOTAL (9 h, dose level High): 2 g | KIDNEY_R (9 h, dose level Low): 0.9 g | KIDNEY_TOTAL (9 h, dose level Low): 1.9 g | LIVER (9 h, dose level High): 9.3 g | LIVER (9 h, dose level Low): 9.4 g | A/G (9 h, dose level High): 1.5 | ALP (9 h, dose level High): 749 IU/L | ALT (9 h, dose level High): 33.2 IU/L | AST (9 h, dose level High): 62 IU/L | BUN (9 h, dose level High): 11 mg/dL | CRE (9 h, dose level High): 0.3 mg/dL | Ca (9 h, dose level High): 10.7 mg/dL | Cl (9 h, dose level High): 103.4 meq/L | DBIL (9 h, dose level High): 0.07 mg/dL | GLC (9 h, dose level High): 191.8 mg/dL | IP (9 h, dose level High): 9.6 mg/dL | K (9 h, dose level High): 4 meq/L | LDH (9 h, dose level High): 219.8 IU/L | Na (9 h, dose level High): 141.2 meq/L | PL (9 h, dose level High): 146.6 mg/dL | RALB (9 h, dose level High): 3.2 g/dL | TBIL (9 h, dose level High): 0.1 mg/dL | TC (9 h, dose level High): 82.2 mg/dL | TG (9 h, dose level High): 42.2 mg/dL | TP (9 h, dose level High): 5.5 g/dL | gamma-GTP (9 h, dose level High): 1.2 IU/L | A/G (9 h, dose level Low): 2.1 | ALP (9 h, dose level Low): 1192 IU/L | ALT (9 h, dose level Low): 30.2 IU/L
